# Data as given in PubChem BioAssay (NCI).
#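 Five concentrations, 48 hours, 96-well plates. At the GI50, growth is halved. TGI denotes the concentration required for complete inhibition of growth.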
# Assays:
# Experiment in all cases: inhibition of tumour cell growth, NCI panel, 48 h
# [1] = test system: HCT-15 colon
# [2] = test system: A549 NSCLC
# [3] = test system: NCI-H23 lung
# [4] = test system: OVCAR-4 ovarian
# [5] = test system: DU-145 prostate
# [6] = test system: SK-MEL-28 melanoma
# [7] = test system: EKVX NSCLC
# [8] = test system: UO-31 renal
# [9] = test system: HT29 colon
# [10] = test system: NCI-H522 lung
# [11] = test system: HL-60(TB) leukemia
# [12] = test system: SK-MEL-2 melanoma
# [13] = test system: SN12C renal
# [14] = test system: NCI/ADR-RES ovarian
# [15] = test system: CCRF-CEM leukemia
# [16] = test system: UACC-62 melanoma
# [17] = test system: COLO 205 colon
# [18] = test system: K-562 leukemia
# [19] = test system: SW-620 colon
# [20] = test system: OVCAR-5 ovarian
# [21] = test system: UACC-257 melanoma
# [22] = test system: NCI-H460 lung
# [23] = test system: PC-3 prostate
# [24] = test system: HCC-2998 colon
# [25] = test system: MDA-MB-435
# [26] = test system: OVCAR-3 ovarian
# [27] = test system: ACHN renal
# [28] = test system: T-47D breast
# [29] = test system: 786-0 renal
# [30] = test system: HCT-116 colon
# [31] = test system: RPMI-8226 leukemia
# [32] = test system: SK-OV-3 ovarian
# [33] = test system: IGROV1 ovarian
# [34] = test system: HOP-92 NSCLC
# [35] = test system: MCF7 breast
# [36] = test system: RXF 393 renal
# [37] = test system: SF-268 CNS
# [38] = test system: KM12 colon
# [39] = test system: SF-295 CNS
# [40] = test system: SR leukemia
# [41] = test system: TK-10 renal
# [42] = test system: HOP-62 NSCLC
# [43] = test system: U251 CNS
# [44] = test system: CAKI-1 renal
# [45] = test system: M14 melanoma
# [46] = test system: SK-MEL-5 melanoma
# [47] = test system: SNB-19 CNS
# [48] = test system: LOX IMVI melanoma
# [49] = test system: SNB-75 CNS
# [50] = test system: BT-549 breast
# [51] = test system: SF-539 CNS
# [52] = test system: OVCAR-8 ovarian
# [53] = test system: NCI-H226 lung
# [54] = test system: MALME-3M melanoma
smiles,measurement,setting,value
O=c1c2cc(I)ccc2nc(-c2cccs2)n1/N=C/c1ccccc1,TGI,[1],> 100 µM
same,TGI,[2],> 100 µM
same,TGI,[3],> 100 µM
same,TGI,[4],> 100 µM
same,TGI,[5],> 100 µM
same,TGI,[6],> 100 µM
same,TGI,[7],> 100 µM
same,TGI,[8],> 100 µM
same,TGI,[9],> 100 µM
same,TGI,[10],> 100 µM
same,TGI,[11],> 100 µM
same,TGI,[12],> 100 µM
same,TGI,[13],> 100 µM
same,TGI,[14],> 100 µM
same,TGI,[15],> 100 µM
same,TGI,[16],> 100 µM
same,TGI,[17],> 100 µM
same,TGI,[18],> 100 µM
same,TGI,[19],> 100 µM
same,TGI,[20],> 100 µM
same,TGI,[21],> 100 µM
same,TGI,[22],> 100 µM
same,TGI,[23],> 100 µM
same,TGI,[24],> 100 µM
same,TGI,[25],> 100 µM
same,TGI,[26],> 100 µM
same,TGI,[27],> 100 µM
same,TGI,[28],> 100 µM
same,TGI,[29],> 100 µM
same,TGI,[30],> 100 µM
same,TGI,[31],> 100 µM
same,TGI,[32],> 100 µM
same,TGI,[33],> 100 µM
same,TGI,[34],> 100 µM
same,TGI,[35],> 100 µM
same,TGI,[36],> 100 µM
same,TGI,[37],> 100 µM
same,TGI,[38],> 100 µM
same,TGI,[39],> 100 µM
same,TGI,[40],> 100 µM
same,TGI,[41],> 100 µM
same,TGI,[42],> 100 µM
same,TGI,[43],> 100 µM
same,TGI,[44],> 100 µM
same,TGI,[45],> 100 µM
same,TGI,[46],> 100 µM
same,TGI,[47],> 100 µM
same,TGI,[48],> 100 µM
same,TGI,[49],> 100 µM
same,TGI,[50],> 100 µM
same,TGI,[51],> 100 µM
same,TGI,[52],> 100 µM
same,TGI,[53],> 100 µM
Nc1nc(SC2CCCCC2)nc2c1ncn2C1OC(CO)C(O)C1O (stereo unspecified),GI50,[10],96.6 µg/mL
same,GI50,[45],14.8 µg/mL
same,GI50,[49],69.8 µg/mL
COc1ccc(OC)c2c3c([nH]c12)C(=O)Nc1nc(N)nc(N)c1C3,TGI,[4],> 100 µM
same,TGI,[5],> 100 µM
same,TGI,[6],> 100 µM
same,TGI,[7],> 100 µM
same,TGI,[9],4.49 µM
same,TGI,[54],> 100 µM
same,TGI,[12],> 100 µM
same,TGI,[19],> 100 µM
same,TGI,[20],> 100 µM
same,TGI,[21],> 100 µM
same,TGI,[24],> 100 µM
same,TGI,[25],> 100 µM
same,TGI,[26],> 100 µM
same,TGI,[28],> 100 µM
same,TGI,[29],> 100 µM
same,TGI,[32],> 100 µM
same,TGI,[34],> 100 µM
same,TGI,[36],> 100 µM
same,TGI,[38],> 100 µM
same,TGI,[41],> 100 µM
same,TGI,[45],> 100 µM
same,TGI,[48],> 100 µM
same,TGI,[50],> 100 µM
same,TGI,[52],> 100 µM
same,TGI,[53],> 100 µM
